In article PMC7581941, “Schedule-Dependent Synergy Between the Histone Deacetylase Inhibitor Belinostat and the Dihydrofolate Reductase Inhibitor Pralatrexate in T-and B-cell Lymphoma Cells in vitro” (Frontiers in Cell and Developmental Biology, 2020):
Where two headings read alike, the source gives them in different places.

What was measured:
Jeko-1 = assay: Cell growth inhibition (MTT) and median-drug effect analysis, Jeko-1; format: cell-based; conditions: Homo sapiens, read-out: IC50 (50% growth inhibition); Jeko-1, 72 h exposure
Protocol: Cells were plated in 96-wells flat bottom plates, at 3,000 or 6,000 cells per well in culture medium (75 μL/well) or in 24-wells plates (60,000 cells/well) for the counting assays for which a Coulter Counter was used. Cells were treated immediately with a drug dilution series in cell culture medium (75 μL/well). […] After incubation for 3 h in the 5% CO2 incubator with 100% humidity at 37°C, 150 μL acidified 2-propanol was added to the plates to dissolve the formazan crystals. The yellow-colored MTT stock solution is taken up and reduced to a purple formazan in living cells, which directly correlates to the amount of viable cells. As final step, the plates were measured at 540 (or 492) nm by the SPECTRAfluor spectrophotometer. […] Drug interaction in combination experiments was evaluated using the median-drug effect analysis using CalcuSyn software ([Bijnsdorp et al., 2011]). […] The means of the separate experiments were subsequently averaged so that a mean ± Standard Error of the Mean (SEM) was calculated from three or more separate experiments. […] Drug combinations were designed based on the standard CalcuSyn approach in which a series of drug concentrations were combined in a fixed molar ratio, based on the IC50 of each drug. […]

SUDHL-4 cells [1] = assay: Cell growth inhibition (cell counting) and median-drug effect analysis, SUDHL-4; format: cell-based; conditions: Homo sapiens, SU-DHL-4, read-out: IC50 (50% growth inhibition); SUDHL 4, 72 h exposure
SUDHL-5 cells = assay: Cell growth inhibition (MTT) and median-drug effect analysis, SUDHL-5; format: cell-based; conditions: Homo sapiens, SU-DHL-5, read-out: IC50 (50% growth inhibition); SUDHL 5, 72 h exposure
Protocol: (§1) Cells were treated immediately with a drug dilution series in cell culture medium (75 μL/well). After an incubation period of approximately 72 h, growth in the 96-wells plates was assessed by adding 15 μL MTT solution (stock solution 5 mg/ml in PBS, final concentration 0.5 mg/ml in culture medium) to each well. After incubation for 3 h in the 5% CO2 incubator with 100% humidity at 37°C, 150 μL acidified 2-propanol was added to the plates to dissolve the formazan crystals. The yellow-colored MTT stock solution is taken up and reduced to a purple formazan in living cells, which directly correlates to the amount of viable cells. As final step, the plates were measured at 540 (or 492) nm by the SPECTRAfluor spectrophotometer.
Drug interaction in combination experiments was evaluated using the median-drug effect analysis using CalcuSyn software ([Bijnsdorp et al., 2011]). In order to evaluate combination indexes [CI] from different experiments, the CI values at Fraction Affected (FA) values >0.5 (preferably around 0.5, 0.75, and 0.9) were averaged for each specific experiment. The means of the separate experiments were subsequently averaged so that a mean ± Standard Error of the Mean (SEM) was calculated from three or more separate experiments. […] Drug combinations were designed based on the standard CalcuSyn approach in which a series of drug concentrations were combined in a fixed molar ratio, based on the IC50 of each drug. A variation of this approach was a sequential scheduling in which cells were exposed for 72 h to BLS, while in the combination PLX was added after 24 h and cells were exposed from 24 to 72 h. In the non-fixed ratio approach one drug was used at the IC25 (concentration that results in 25% growth inhibition) and the other drug was added in a concentration range.

HT cells [2] = assay: Cell growth inhibition (cell counting) and median-drug effect analysis, HT; format: cell-based; conditions: for IC50: HT
HT cells [3] = assay: FACS propidium iodide staining: cell cycle distribution and cell death, HT; format: cell-based
Protocol: (§2) Propidium iodide staining (DNA staining) was used to determine cell cycle distribution and the extent of cell death. Cells (120,000 per well in a 24-wells plate) were exposed to PLX or BLS or the combination for 24, 48, or 72 h. Cells were harvested, suspended in 1.0 ml phosphate buffered saline/1% Bovine serum albumin and fixed with 70% ethanol. After centrifugation the pellet was resuspended in hypotonic propidium iodide (0.1 mg/ml), Triton-X-100 (0.1%), sodium citrate (1 mg/ml) and RNAse A (0.5 mg/ml) (final concentrations in saline) and stored in dark on ice for 30 min ([De Wilt et al., 2012]). DNA content of the cells to determine cell cycle effects and cell kill was analyzed by a FACScalibur (Becton Dickinson Immunocytometry Systems, San Jose, CA, United States) with an acquisition of 10,000 events as described previously ([De Wilt et al., 2012]).

Karpas-299 = assay: Cell growth inhibition (MTT) and median-drug effect analysis, Karpas-299; format: cell-based; conditions: Homo sapiens, read-out: IC50 (50% growth inhibition); Karpas-299, 72 h exposure
Protocol: as §1
(§3) Drug interaction in combination experiments was evaluated using the median-drug effect analysis using CalcuSyn software ([Bijnsdorp et al., 2011]). In order to evaluate combination indexes [CI] from different experiments, the CI values at Fraction Affected (FA) values >0.5 (preferably around 0.5, 0.75, and 0.9) were averaged for each specific experiment. The means of the separate experiments were subsequently averaged so that a mean ± Standard Error of the Mean (SEM) was calculated from three or more separate experiments. […]

Hut-29 = assay: Cell growth inhibition (MTT) and median-drug effect analysis, Hut-29; format: cell-based; conditions: read-out: IC50 (50% growth inhibition); Hut-29, 72 h exposure
Protocol: as §1, §3

SUDHL-4 cells [4] = assay: FACS propidium iodide staining: cell death, SUDHL-4; format: cell-based; conditions: drugs at their IC50, untreated 5.0%
Protocol: as §2

lymphoma cell lines = assay: Cell growth inhibition and median-drug effect analysis, panel of lymphoma cell lines; format: cell-based
Protocol: Cells were plated in 96-wells flat bottom plates, at 3,000 or 6,000 cells per well in culture medium (75 μL/well) or in 24-wells plates (60,000 cells/well) for the counting assays for which a Coulter Counter was used. Cells were treated immediately with a drug dilution series in cell culture medium (75 μL/well). […] After incubation for 3 h in the 5% CO2 incubator with 100% humidity at 37°C, 150 μL acidified 2-propanol was added to the plates to dissolve the formazan crystals. The yellow-colored MTT stock solution is taken up and reduced to a purple formazan in living cells, which directly correlates to the amount of viable cells. As final step, the plates were measured at 540 (or 492) nm by the SPECTRAfluor spectrophotometer. […] Drug interaction in combination experiments was evaluated using the median-drug effect analysis using CalcuSyn software ([Bijnsdorp et al., 2011]). […] The means of the separate experiments were subsequently averaged so that a mean ± Standard Error of the Mean (SEM) was calculated from three or more separate experiments. […] Drug combinations were designed based on the standard CalcuSyn approach in which a series of drug concentrations were combined in a fixed molar ratio, based on the IC50 of each drug. A variation of this approach was a sequential scheduling in which cells were exposed for 72 h to BLS, while in the combination PLX was added after 24 h and cells were exposed from 24 to 72 h.

CCRF-CEM = assay: Cell growth inhibition (MTT), CCRF-CEM; format: cell-based, human; conditions: Homo sapiens, read-out: IC50 (50% growth inhibition); CCRF-CEM, 72 h exposure
Protocol: as §1

FRβ = target: T1, FRβ (Homo sapiens, UniProt P14207); assay: Intact cell binding assay, displacement of radio-active folic acid from CHO-FRβ cells; conditions: folic acid set at 1
T1 construct: expressed in transfected cells; host or cells: CHO-FRβ cells
Protocol: (§4) In order to determine to which extent PLX was a substrate for either the folate receptors, RFC or PCFT we used competition experiments in cell lines overexpressing either transporter ([Westerhof et al., 1995a], [b]; [Jansen et al., 1997]; [Ifergan et al., 2008]; [Lasry et al., 2008]; [van der Heijden et al., 2009]). For FRα and FRβ, we used an intact cell binding assay for competitive binding with KB cells and CHO-FRβ cells, respectively. […] For RFC we used a competition assay with 5 μM [^3H]-l-LV in CCRF-CEM/7A cells (RFC+++) for 2 min at 37°C. CEM-7A cells overexpress the RFC 30-fold over wild-type CCRF-CEM cells ([Jansen et al., 1990], [1997]).

FRα = target: T2, FRα (Homo sapiens, UniProt P15328); assay: Intact cell binding assay, displacement of radio-active folic acid from KB cells; conditions: inverse ratio of compound to displace 50% of radio-active folic acid, folic acid set at 1
T2 construct: endogenous in cells; host or cells: KB cells
Protocol: as §4

T2 sequence (P15328 25-257): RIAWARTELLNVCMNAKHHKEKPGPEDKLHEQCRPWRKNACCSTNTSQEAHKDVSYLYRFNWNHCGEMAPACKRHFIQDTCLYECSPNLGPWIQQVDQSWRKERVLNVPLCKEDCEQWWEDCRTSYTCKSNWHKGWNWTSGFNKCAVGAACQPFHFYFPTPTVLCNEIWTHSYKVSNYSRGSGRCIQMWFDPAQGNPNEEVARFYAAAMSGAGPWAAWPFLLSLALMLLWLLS
T1 sequence (P14207 17-255, species assumed): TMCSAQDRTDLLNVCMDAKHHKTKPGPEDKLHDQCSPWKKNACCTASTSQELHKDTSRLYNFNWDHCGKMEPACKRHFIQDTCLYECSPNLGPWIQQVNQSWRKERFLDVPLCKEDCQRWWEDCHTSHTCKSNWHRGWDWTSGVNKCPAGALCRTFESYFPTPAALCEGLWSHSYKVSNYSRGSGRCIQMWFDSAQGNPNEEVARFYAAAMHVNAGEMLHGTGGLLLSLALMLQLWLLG

SMILES | IC50 (Jeko-1) | IC50 (SUDHL-4 cells [1]) | IC50 (SUDHL-5 cells) | IC25 (concentration that results in 25% growth inhibition) (HT cells [2]; HT cells, 72 h) | IC50 (HT cells [2]; Homo sapiens, 72 h, read-out: IC50 (50% growth inhibition), HT, 72 h exposure) | IC50 (HT cells [2]; read-out: IC50 (50% growth inhibition), 72 h exposure) | accumulation of cells in the S-phase (HT cells [3]; 72 h exposure at IC50) | accumulation of cells in the sub-G1 phase (cell death) (HT cells [3]; drugs at their IC50, untreated 3.5%) | IC50 (Karpas-299) | IC50 (Hut-29) | accumulation of cells in the sub-G1 phase (cell death) (SUDHL-4 cells [4]) | IC50 (lymphoma cell lines; 72 hr exposure, panel of cell lines, read-out: IC50, range over the cell lines) | effect of l-LV on sensitivity to BLS (lymphoma cell lines; data not shown) | IC50 (CCRF-CEM) | FRβ relative affinity (FRβ) | FR-α relative affinity (FRα)
O=C(/C=C/c1cccc(S(=O)(=O)Nc2ccccc2)c1)NO [BLS, Belinostat] | 103 ± 11 nM | 72.3 ± 5 nM | 112 ± 15 nM | ~100 nM | ~220 nM | 223 ± 23 nM | more pronounced | 21% | 203 ± 21 nM | 97 ± 12 nM | 15.5% | 72 to 233 nM | did not affect sensitivity | 95.8 ± 16.1 nM |  | 
Nc1nc(=O)c2nc(CNc3ccc(C(=O)N[C@@H](CCC(=O)O)C(=O)O)cc3)cnc2[nH]1 [FA, Folic acid] |  |  |  |  |  |  |  |  |  |  |  |  |  |  | 1 | 1
